From PMC3844902 (British Journal of Cancer, 2013)

Assay: Safety and tolerability
Assay type: in vivo, Japanese patients
Details: just after meals, in combination with erlotinib 150 mg QD

O=C1NC(=O)[C@@H](c2cn3c4c(cccc24)CCC3)[C@@H]1c1c[nH]c2ccccc12 [tivantinib]
Recommended phase II dose (RP2D) of tivantinib (Japanese EMs): 360 mg BID | Recommended phase II dose (RP2D) of tivantinib (Japanese PMs): 240 mg BID
